In one series the target is F508del-CFTR (Homo sapiens (Human), UniProt P13569, DEL508-508). The experiment in a line: Membrane potential optical (fluorescent voltage sensing dye, FLIPR III) HTS assay for F508del-CFTR modulators. It counts as cell-based. The method, boiled down:
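NIH3T3 mouse fibroblasts stably expressing F508del-CFTR were seeded on matrigel-coated plates for 18–24 h at 37 °C. For correction assays they were cultured with or without compound for that period. Membrane potential was read on FLIPR III with voltage-sensing dyes, using a pH 7.4 NaCl/HEPES bath and a chloride-free gluconate substitute solution.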

The nature of another series: Rat IV and PO PK studies. The note with it: male, Sprague-Dawley, plasma; for bioavailability / AUC: 3 mg/kg, oral; for bioavailability: read-out: Rat po % F; for clearance: intravenous, 3.0 mg/kg, read-out: Rat iv CL. The format is in vivo, male Sprague-Dawley rats. As for the experimental part: 5C. Experimental Protocol for Rat IV and PO PK Studies
[…] […] Analyses of plasma and dose preparations were performed using LC/MS/MS.
Plasma concentration-time profiles of the tested compound in Sprague-Dawley rats at scheduled (nominal) sampling times were analyzed by noncompartmental pharmacokinetic methods using PK function within Watson LIMS software, Version 7.4.2 (Thermo Scientific Inc, Waltham, Mass.). AUC values were calculated using the linear trapezoidal rule.

The target in the next series is human PXR (Homo sapiens (Human), UniProt O75469). The experiment in a line: PXR assay (PXR mediated CYP3A4 induction, DPX-2 cell line). The format is cell-based. As to conditions: DPX-2 cells, 48 hours, 0.1 to 60 μM. As for the experimental part: 5D. Experimental Protocol for PXR Assay
Chain of human PXR (O75469 whole entry): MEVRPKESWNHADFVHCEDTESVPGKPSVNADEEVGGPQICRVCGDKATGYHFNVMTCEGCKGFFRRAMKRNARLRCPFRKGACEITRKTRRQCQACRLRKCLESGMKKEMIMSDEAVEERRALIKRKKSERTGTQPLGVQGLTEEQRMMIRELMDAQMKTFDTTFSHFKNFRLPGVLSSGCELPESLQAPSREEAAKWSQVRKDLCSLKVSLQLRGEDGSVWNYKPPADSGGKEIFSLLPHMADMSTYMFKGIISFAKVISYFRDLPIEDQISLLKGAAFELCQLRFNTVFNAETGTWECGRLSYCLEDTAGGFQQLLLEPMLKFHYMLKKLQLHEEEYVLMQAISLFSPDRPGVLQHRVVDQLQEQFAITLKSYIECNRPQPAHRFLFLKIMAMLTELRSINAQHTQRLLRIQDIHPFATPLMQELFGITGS
The propensity for PXR mediated CYP3A4 induction is assessed using the DPX-2 cell line in vitro. This cell line, which has been licensed from Puracyp Inc. was derived from HepG2 cells and has been stably transfected with genes encoding human PXR as well as a modified luciferase reporter linked to the CYP3A4 promoter region and related distal and proximal enhancers.
The assay is run in 384 well format and each test article is administered in 11 doses ranging from 0.1 to 60 μM. On day 1, DPX-2 cells which have previously been expanded in-house and cryopreserved are thawed and seeded in tissue culture plates. The following day, media is changed and cells are cultured in media containing test article, vehicle control or the positive control compound, the clinically validated CYP3A4 inducer rifampicin. Cells are cultured in the presence of test article for 48 hours and then cell viability is assessed using fluorescence based assay (Cell Titer-Fluor, Promega) with an EnVision Plate Reader (PerkinElmer). Subsequently, CYP3A4 transactivation, which is proportional to luciferase activity, is measured by reading luminescense using the Promega One-Glo reagent system using the same plate reader.
Data processing within the Genedata software package allows reporting of max fold induction compared to vehicle control, an EC50 value for CYP3A4 inducers and an 11 point-dose response curve.

[1] abbreviates: F508del NIH 3T3 cells, assay 5A-A1, read-out: CFTRdF508 EC50.
Where [2] appears, read: Table 9, read-out: CFTR dF508 EC50.

Like-named read-outs stand apart in the source and are kept apart here.

Chain of F508del-CFTR (P13569 other isoform, or with tags, fused parts or gaps del F508-F508): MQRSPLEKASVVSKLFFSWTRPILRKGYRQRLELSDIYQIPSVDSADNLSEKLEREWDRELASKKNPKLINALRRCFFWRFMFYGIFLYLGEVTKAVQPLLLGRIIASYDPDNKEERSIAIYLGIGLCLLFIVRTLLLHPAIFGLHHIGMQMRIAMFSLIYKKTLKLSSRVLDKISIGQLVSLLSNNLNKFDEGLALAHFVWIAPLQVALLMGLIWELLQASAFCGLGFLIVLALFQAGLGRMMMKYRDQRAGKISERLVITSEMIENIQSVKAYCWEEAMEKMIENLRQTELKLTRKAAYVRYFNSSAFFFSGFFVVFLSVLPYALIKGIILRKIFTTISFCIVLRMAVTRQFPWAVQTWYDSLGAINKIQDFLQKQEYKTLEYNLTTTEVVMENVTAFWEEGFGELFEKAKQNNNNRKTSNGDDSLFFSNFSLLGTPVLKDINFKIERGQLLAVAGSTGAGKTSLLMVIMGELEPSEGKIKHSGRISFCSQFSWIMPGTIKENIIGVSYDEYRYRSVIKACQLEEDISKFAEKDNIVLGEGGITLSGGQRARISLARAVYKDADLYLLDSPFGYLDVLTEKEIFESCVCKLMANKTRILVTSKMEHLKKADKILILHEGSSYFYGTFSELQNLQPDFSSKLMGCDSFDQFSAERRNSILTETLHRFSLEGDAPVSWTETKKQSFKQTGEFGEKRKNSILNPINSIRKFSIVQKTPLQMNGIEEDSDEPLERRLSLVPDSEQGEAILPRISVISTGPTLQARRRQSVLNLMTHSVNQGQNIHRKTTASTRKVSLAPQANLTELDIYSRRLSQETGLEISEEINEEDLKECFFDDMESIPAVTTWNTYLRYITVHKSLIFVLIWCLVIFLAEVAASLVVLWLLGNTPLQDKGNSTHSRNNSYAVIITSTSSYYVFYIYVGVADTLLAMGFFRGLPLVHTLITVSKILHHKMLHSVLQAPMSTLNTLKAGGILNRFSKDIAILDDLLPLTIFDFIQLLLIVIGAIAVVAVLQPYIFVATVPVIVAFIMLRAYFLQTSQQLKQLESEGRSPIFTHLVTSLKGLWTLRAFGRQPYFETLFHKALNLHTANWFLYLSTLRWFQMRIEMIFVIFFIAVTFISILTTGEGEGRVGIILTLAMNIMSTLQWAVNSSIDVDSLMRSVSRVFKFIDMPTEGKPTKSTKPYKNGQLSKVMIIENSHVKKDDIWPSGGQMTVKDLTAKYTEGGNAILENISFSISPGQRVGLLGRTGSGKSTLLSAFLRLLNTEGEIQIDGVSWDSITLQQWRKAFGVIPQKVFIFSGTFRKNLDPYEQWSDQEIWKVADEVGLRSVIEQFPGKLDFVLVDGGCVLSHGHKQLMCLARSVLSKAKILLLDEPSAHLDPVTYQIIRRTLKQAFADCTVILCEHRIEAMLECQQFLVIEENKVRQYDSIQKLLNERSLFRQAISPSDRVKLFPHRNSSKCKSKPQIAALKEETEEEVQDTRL

As a reminder, the EC50 is the concentration that produces a half-maximal response. One may read the AUC as the area under the concentration-time curve, a measure of exposure. Read a high AUC as more exposure. For the molecule `C[C@@H]1CN(c2nc(-n3ccc(OCC4(C(F)(F)F)CC4)n3)ccc2C(=O)NS(=O)(=O)c2ccc(C#N)cc2)C(C)(C)C1` [Comp. 27, N-(4-Cyanophenyl)sulfonyl-6-[3-[[1-(trifluoromethyl)cyclopropyl]methoxy]pyrazol-1-yl]-2-[(4S)-2,2,4-trimethylpyrrolidin-1-yl]pyridine-3-carboxamide], the EC50 at F508del-CFTR (setting [1]) lay in the range of 100 to 1000 nM. The EC50 on F508del-CFTR (setting [2]) was determined as 270 nM. In “Rat IV and PO PK studies”, the bioavailability was 100%, the clearance was determined as 3.6 mL/min/kg and the AUC was determined as 20300 ng·h/mL. Further, the “PXR Max Induction (% of rifampicin)” value on human PXR is reported as 8 % of rifampicin.
For the molecule `C[C@@H]1CN(c2nc(-n3ccc(OCC4C(C)(C)C4(C)C)n3)ccc2C(=O)NS(=O)(=O)c2ccccc2)C(C)(C)C1` [Comp. 30, N-(Benzenesulfonyl)-6-[3-[(2,2,3,3-tetramethylcyclopropyl)methoxy]pyrazol-1-yl]-2-[(4S)-2,2,4-trimethylpyrrolidin-1-yl]pyridine-3-carboxamide], on F508del-CFTR (setting [1]), the EC50 was under 100 nM. Further, the EC50 at F508del-CFTR (setting [2]) came to 90 nM. Besides, in “Rat IV and PO PK studies”, the bioavailability came to 26%, the clearance was 6.1 mL/min/kg and the AUC was determined as 2300 ng·h/mL. For the same molecule, the “PXR Max Induction (% of rifampicin)” value on human PXR was 0 % of rifampicin.
On to `C[C@@H]1CN(c2cc(-n3ccc(OCCC4(C(F)(F)F)CC4)n3)ncc2C(=O)NS(=O)(=O)c2ccccc2)C(C)(C)C1` [Comp. 44, (S)—N-(phenylsulfonyl)-6-(3-(2-(1-(trifluoromethyl)cyclopropyl)ethoxy)-1H-pyrazol-1-yl)-4-(2,2,4-trimethylpyrrolidin-1-yl)nicotinamide], for which the EC50 at F508del-CFTR (setting [1]) fell in the range of 100 to 1000 nM. On F508del-CFTR (setting [2]), the concentration for a half-maximal effect (EC50) came to 620 nM. For the same molecule, in “Rat IV and PO PK studies”, the bioavailability was 81%, the clearance was found to be 5 mL/min/kg and the AUC was determined as 8500 ng·h/mL. For the same molecule, on human PXR, the “PXR Max Induction (% of rifampicin)” value is 18 % of rifampicin.
Take `C[C@@H]1CN(c2nc(-n3ccc(OCC4(C(F)(F)F)CC4)n3)ccc2C(=O)NS(=O)(=O)c2cccc(F)c2)C(C)(C)C1` [Comp. 51, N-(3-Fluorophenyl)sulfonyl-6-[3-[[1-(trifluoromethyl)cyclopropyl]methoxy]pyrazol-1-yl]-2-[(4S)-2,2,4-trimethylpyrrolidin-1-yl]pyridine-3-carboxamide]: the EC50 at F508del-CFTR (setting [1]) was under 100 nM. On F508del-CFTR (setting [2]), the concentration for a half-maximal effect (EC50) turned out to be 50 nM. For the same molecule, in “Rat IV and PO PK studies”, the bioavailability stood at 100%, the clearance was determined as 5.2 mL/min/kg and the AUC was 10500 ng·h/mL. In addition, the “PXR Max Induction (% of rifampicin)” value at human PXR is 17 % of rifampicin.
Regarding `COc1ccccc1S(=O)(=O)NC(=O)c1ccc(-n2ccc(OCC3(C(F)(F)F)CC3)n2)nc1N1C[C@@H](C)CC1(C)C` [Comp. 53, N-(2-methoxyphenyl)sulfonyl-6-[3-[[l-(trifluoromethyl)cyclopropyl]methoxy]pyrazol-1-yl]-2-[(4S)-2,2,4-trimethylpyrrolidin-1-yl]pyridine-3-carboxamide], the EC50 on F508del-CFTR (setting [1]) is under 100 nM. Moreover, the EC50 on F508del-CFTR (setting [2]) is 40 nM. In “Rat IV and PO PK studies”, the bioavailability came out at 98%, the clearance was determined as 2.3 mL/min/kg and the AUC is 13700 ng·h/mL. The “PXR Max Induction (% of rifampicin)” value at human PXR is 39 % of rifampicin.
Turning to `C[C@@H]1CN(c2nc(-n3ccc(OCC4(C(F)(F)F)CC4)n3)ccc2C(=O)NS(=O)(=O)c2ccccc2)C(C)(C)C1` [Compound 14, N-(Benzenesulfonyl)-6-[3-[[1-(trifluoromethyl)cyclopropyl]methoxy]pyrazol-1-yl]-2-[(4S)-2,2,4-trimethylpyrrolidin-1-yl]pyridine-3-carboxamide], the EC50 at F508del-CFTR (setting [1]) is under 100 nM. Also, the EC50 on F508del-CFTR (setting [2]) worked out at 40 nM. Moreover, in “Rat IV and PO PK studies”, the bioavailability worked out at 58%, the clearance worked out at 2 mL/min/kg and the AUC worked out at 14700 ng·h/mL. Besides, on human PXR, the “PXR Max Induction (% of rifampicin)” value is given as 19 % of rifampicin.
Take `C[C@@H]1CN(c2nc(-n3ccc(OCC4C(C)(C)C4(C)C)n3)ccc2C(=O)NS(=O)(=O)c2cccc(F)c2)C(C)(C)C1` [Compound 16, N-(3-Fluorophenyl)sulfonyl-6-[3-[(2,2,3,3-tetramethylcyclopropyl)methoxy]pyrazol-1-yl]-2-[(4S)-2,2,4-trimethylpyrrolidin-1-yl]pyridine-3-carboxamide]: the EC50 at F508del-CFTR (setting [1]) is under 100 nM. For the same molecule, the EC50 on F508del-CFTR (setting [2]) stood at 20 nM. In addition, in the series “Rat IV and PO PK studies”, the bioavailability worked out at 12%, the clearance was 24.8 mL/min/kg and the AUC was found to be 250 ng·h/mL. The “PXR Max Induction (% of rifampicin)” value at human PXR is recorded as 2 % of rifampicin.
On to `C[C@@H]1CN(c2nc(-n3ccc(OCC4(C(F)(F)F)CC4)n3)ccc2C(=O)NS(=O)(=O)c2ccc(O)cc2)C(C)(C)C1` [Compound 22, N-(4-Hydroxyphenyl)sulfonyl-6-[3-[[1-(trifluoromethyl)cyclopropyl]methoxy]pyrazol-1-yl]-2-[(4S)-2,2,4-trimethylpyrrolidin-1-yl]pyridine-3-carboxamide], for which the EC50 at F508del-CFTR (setting [1]) was in the range of 100 to 1000 nM. At F508del-CFTR (setting [2]), the EC50 worked out at 120 nM. Also, in “Rat IV and PO PK studies”, the bioavailability came to 31%, the clearance turned out to be 6.7 mL/min/kg and the AUC stood at 3600 ng·h/mL. Moreover, the “PXR Max Induction (% of rifampicin)” value at human PXR is 4 % of rifampicin.
`Cc1ccccc1S(=O)(=O)NC(=O)c1ccc(-n2ccc(OCC3(C(F)(F)F)CC3)n2)nc1N1C[C@@H](C)CC1(C)C` [Compound 23, N-(o-Tolylsulfonyl)-6-[3-[[1-(trifluoromethyl)cyclopropyl]methoxy]pyrazol-1-yl]-2-[(4S)-2,2,4-trimethylpyrrolidin-1-yl]pyridine-3-carboxamide]: the EC50 at F508del-CFTR (setting [1]) was under 100 nM. Further, the half-maximal effective concentration (EC50) on F508del-CFTR (setting [2]) was found to be 30 nM. Further, in the series “Rat IV and PO PK studies”, the bioavailability was found to be 69%, the clearance turned out to be 2.7 mL/min/kg and the AUC worked out at 12500 ng·h/mL. The “PXR Max Induction (% of rifampicin)” value at human PXR is recorded as 22 % of rifampicin.
With `Cc1ccc(S(=O)(=O)NC(=O)c2ccc(-n3ccc(OCC4(C(F)(F)F)CC4)n3)nc2N2C[C@@H](C)CC2(C)C)cc1` [Compound 24, N-(p-Tolylsulfonyl)-6-[3-[[1-(trifluoromethyl)cyclopropyl]methoxy]pyrazol-1-yl]-2-[(4S)-2,2,4-trimethylpyrrolidin-1-yl]pyridine-3-carboxamide], the EC50 on F508del-CFTR (setting [1]) is under 100 nM. Also, at F508del-CFTR (setting [2]), the EC50 is 70 nM. In addition, in the series “Rat IV and PO PK studies”, the bioavailability turned out to be 98%, the clearance is 2.6 mL/min/kg and the AUC stood at 20000 ng·h/mL. In addition, the “PXR Max Induction (% of rifampicin)” value on human PXR is recorded as 9 % of rifampicin.
Take `C[C@@H]1CN(c2nc(-n3ccc(OCC4C5(CC5)C45CC5)n3)ccc2C(=O)NS(=O)(=O)c2ccccc2)C(C)(C)C1` [Compound 64, N-(Benzenesulfonyl)-6-[3-(dispiro[2.0.2.1]heptan-7-ylmethoxy)pyrazol-1-yl]-2-[(4S)-2,2,4-trimethylpyrrolidin-1-yl]pyridine-3-carboxamide]: on F508del-CFTR (setting [1]), the EC50 was under 100 nM. For the same molecule, the EC50 on F508del-CFTR (setting [2]) worked out at 50 nM. Further, in the series “Rat IV and PO PK studies”, the bioavailability is 79%, the clearance was 3.4 mL/min/kg and the AUC was 9000 ng·h/mL. The “PXR Max Induction (% of rifampicin)” value at human PXR is on record as 4 % of rifampicin.
